Where a name gives a salt, the structure may show the parent alone.
Tests used:
Mcl-1 protein = Mcl-1 protein (Homo sapiens, UniProt Q07820); assay: Inhibition of Mcl-1 by the fluorescence polarisation technique; format: binding; details: fluorescence polarisation test; read-out: IC50 (M) Mcl-LFP
Procedure: The relative, binding potency of each compound was determined via Fluorescence Polarisation (FP). The method utilised a Fluorescein labelled ligand (Fluorescein-βAla-Ahx-A-REIGAQLRRMADDLNAQY-OH; mw 2,765) which binds to the Mcl-1 protein (such that Mcl-1 corresponds to the UniProtKB® primary accession number: Q07820) leading to an increased anisotropy measured in milli-polarisation (mP) units using a reader. The addition of a compound which binds competitively to the same site as the ligand will result in a greater proportion of unbound ligand in the system indicated by a decrease in mP units.
An 11 point serial dilution of each compound was prepared in DMSO and 2 μl transferred into flat bottomed, low binding, 384-well plate (final DMSO concentration 5%), 38 μl of buffer (10 mM 4-(2-hydroxyethyl)-1-piperazineethanesolfonic acid [HEPES], 150 mM NaCl, 0.05% Tween 20, pH 7.4), containing the Fluorescein labelled ligand (final concentration 1 nM) and Mcl-1 protein (final concentration 5 nM) was then added.
Assay plates were incubated ˜2 hours at room temperature before FP was measured on a […] Synergy2 reader (Ex. 528 nm, Em. 640 nm, Cut off 510 nm) and mP units calculated. The binding of increasing doses of test compound was expressed as a percentage reduction in mP compared to a window established between ‘5% DMSO only’ and ‘100% inhibition’ controls. 11-point dose response curves were plotted with XL-Fit software using a 4-Parameter Logistic Model (Sigmoidal Dose-Response Model) and the inhibitory concentrations that gave a 50% reduction in mP (IC50) were determined.

[1] = test system: H929 multiple myeloma tumour line; assay: In vitro cytotoxicity (MTT); format: cell-based; details: 48 hours exposure
Procedure: The cytotoxicity studies were carried out on the H929 multiple myeloma tumour line.
The cells are distributed onto microplates and exposed to the test compound for 48 hours.
The cell viability is then quantified by a colorimetric assay, the Microculture Tetrazolium Assay (Carmichael et al. Cancer Res. 1987, 47, 936-942).

[2] = Homo sapiens, NCI-H929, H929 cells

Mcl-1 protein, sequence (Q07820 whole entry): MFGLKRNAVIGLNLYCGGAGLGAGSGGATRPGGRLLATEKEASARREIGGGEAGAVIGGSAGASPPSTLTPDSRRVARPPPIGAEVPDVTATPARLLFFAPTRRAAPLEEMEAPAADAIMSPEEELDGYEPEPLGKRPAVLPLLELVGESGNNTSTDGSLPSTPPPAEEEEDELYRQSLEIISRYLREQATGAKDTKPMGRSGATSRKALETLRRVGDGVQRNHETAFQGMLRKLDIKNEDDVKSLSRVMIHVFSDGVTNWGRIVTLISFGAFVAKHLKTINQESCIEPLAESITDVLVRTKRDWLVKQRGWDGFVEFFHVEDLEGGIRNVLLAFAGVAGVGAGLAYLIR

Row | Molecule | IC50 (Mcl-1 protein) | IC50 ([1]; H929 cells) | IC50 [1, 2]
1 | 4-[2-(4-{(5Sa)-4-[(1R)-1-carboxy-2-(2-{[2-(2-methoxyphenyl)pyrimidin-4-yl]methoxy}phenyl)ethoxy]-6-(4-fluorophenyl)thieno[2,3-d]pyrimidin-5-yl}-2-chloro-3-methylphenoxy)ethyl]-1-{[(diethylcarbamoyl)oxy]methyl}-1-methylpiperazin-1-ium trifluoroacetate [Example 19] | 1.2e-09 M | 1640 nM | 
2 | COc1ccccc1-c1nccc(COc2ccccc2CC(Oc2ncnc3sc(-c4ccc(F)cc4)c(-c4ccc(OCCN5CC[N+](C)(COP(=O)([O-])OCc6ccccc6)CC5)c(Cl)c4C)c23)C(=O)O)n1 [Example 2, benzyl {4-[2-(4-{(5Sa)-4-[(1R)-1-carboxy-2-(2-{[2-(2-methoxyphenyl)pyrimidin-4-yl]methoxy}phenyl)ethoxy]-6-(4-fluorophenyl)thieno[2,3-d]pyrimidin-5-yl}-2-chloro-3-methylphenoxy)ethyl]-1-methylpiperazin-1-ium-1-yl}methyl phosphate] | 9.48e-10 M |  | 10.9 nM
3 | COc1ccccc1-c1nccc(COc2ccccc2CC(Oc2ncnc3sc(-c4ccc(F)cc4)c(-c4ccc(OCCN5CC[N+](C)(COP(=O)([O-])O)CC5)c(Cl)c4Br)c23)C(=O)O)n1 [Example 5, {4-[2-(3-bromo-4-{(5Sa)-4-[(1R)-1-carboxy-2-(2-{[2-(2-methoxyphenyl)pyrimidin-4-yl]methoxy}phenyl)ethoxy]-6-(4-fluorophenyl)thieno[2,3-d]pyrimidin-5-yl}-2-chlorophenoxy)ethyl]-1-methylpiperazin-1-ium-1-yl}methyl hydrogen phosphate] | 1.06e-09 M |  | 55.4 nM
4 | COc1ccccc1-c1nccc(COc2ccccc2CC(Nc2ncnc3sc(-c4ccc(F)cc4)c(-c4ccc(OCCN5CC[N+](C)(COP(=O)([O-])O)CC5)c(Cl)c4C)c23)C(=O)O)n1 [Example 8, N-[(5Sa)-5-{3-chloro-4-[2-(4-{[(hydroxyphosphinato)oxy]methyl}-4-methylpiperazin-4-ium-1-yl)ethoxy]-2-methylphenyl}-6-(4-fluorophenyl)thieno[2,3-d]pyrimidin-4-yl]-2-{[2-(2-methoxyphenyl)pyrimidin-4-yl]methoxy}-D-phenylalanine] | 9.48e-10 M |  | 229 nM
5 | COc1ccccc1-c1nccc(COc2ccccc2CC(Oc2ncnc3sc(-c4ccc(F)cc4)c(-c4ccc(OCCN5CC[N+](C)(COC(C)=O)CC5)c(Cl)c4C)c23)C(=O)O)n1 [Example 17, 1-[(acetyloxy)methyl]-4-[2-(4-{(5Sa)-4-[(1R)-1-carboxy-2-(2-{[2-(2-methoxyphenyl)pyrimidin-4-yl]methoxy}phenyl)ethoxy]-6-(4-fluorophenyl)thieno[2,3-d]pyrimidin-5-yl}-2-chloro-3-methylphenoxy)ethyl]-1-methylpiperazin-1-ium trifluoroacetate] | 1.12e-09 M | 2.15 nM | 
6 | CCOC(=O)OC[N+]1(C)CCN(CCOc2ccc(-c3c(-c4ccc(F)cc4)sc4ncnc(OC(Cc5ccccc5OCc5ccnc(-c6ccccc6OC)n5)C(=O)O)c34)c(C)c2Cl)CC1 [Example 18, 4-[2-(4-{(5Sa)-4-[(1R)-1-carboxy-2-(2-{[2-(2-methoxyphenyl)pyrimidin-4-yl]methoxy}phenyl)ethoxy]-6-(4-fluorophenyl)thieno[2,3-d]pyrimidin-5-yl}-2-chloro-3-methylphenoxy)ethyl]-1-{[(ethoxycarbonyl)oxy]methyl}-1-methylpiperazin-1-ium] | 9.48e-10 M |  | 1.74 nM

Further lines, with some results ahead:

Row | IC50 (Mcl-1 protein) | Molecule | IC50 ([1]; H929 cells) | IC50 [1, 2]
7 | 1.96e-09 M | CCN(CC)C(=O)OC(C)[N+]1(C)CCN(CCOc2ccc(-c3c(-c4ccc(F)cc4)sc4ncnc(O[C@H](Cc5ccccc5OCc5ccnc(-c6ccccc6OC)n5)C(=O)O)c34)c(C)c2Cl)CC1 (stereo partly drawn) [Example 21, 4-[2-(4-{(5Sa)-4-[(1R)-1-carboxy-2-(2-{[2-(2-methoxyphenyl)pyrimidin-4-yl]methoxy}phenyl)ethoxy]-6-(4-fluorophenyl)thieno[2,3-d]pyrimidin-5-yl}-2-chloro-3-methylphenoxy)ethyl]-1-{1-[(diethylcarbamoyl)oxy]ethyl}-1-methylpiperazin-1-ium trifluoroacetate] | 70.4 nM | 
8 | 9.48e-10 M | COc1ccccc1-c1nccc(COc2ccccc2CC(Oc2ncnc3sc(-c4ccc(F)cc4)c(-c4ccc(OCCN5CC[N+](C)(Cc6oc(=O)oc6C)CC5)c(Cl)c4C)c23)C(=O)O)n1 [Example 22, 4-[2-(4-{(5Sa)-4-[(1R)-1-carboxy-2-(2-{[2-(2-methoxyphenyl)pyrimidin-4-yl]methoxy}phenyl)ethoxy]-6-(4-fluorophenyl)thieno[2,3-d]pyrimidin-5-yl}-2-chloro-3-methylphenoxy)ethyl]-1-methyl-1-[(5-methyl-2-oxo-1,3-dioxol-4-yl)methyl]piperazin-1-ium trifluoroacetate] | 2.23 nM | 
9 | 1.04e-09 M | COc1ccccc1-c1nccc(COc2ccccc2CC(Oc2ncnc3sc(-c4ccc(F)cc4)c(-c4ccc(OCCN5CC[N+](C)(COC(=O)C(C)(C)C)CC5)c(Cl)c4C)c23)C(=O)O)n1 [Example 24, 4-[2-(4-{(5Sa)-4-[(1R)-1-carboxy-2-(2-{[2-(2-methoxyphenyl)pyrimidin-4-yl]methoxy}phenyl)ethoxy]-6-(4-fluorophenyl)thieno[2,3-d]pyrimidin-5-yl}-2-chloro-3-methylphenoxy)ethyl]-1-{[(2,2-dimethylpropanoyl)oxy]methyl}-1-methylpiperazin-1-ium trifluoroacetate] | 2.52 nM | 
10 | 1.07e-09 M | COc1ccccc1-c1nccc(COc2ccccc2CC(Oc2ncnc3sc(-c4ccc(F)cc4)c(-c4ccc(OCCN5CC[N+](C)(COC(C)=O)CC5)c(Cl)c4Br)c23)C(=O)O)n1 [Example 25, 1-[(acetyloxy)methyl]-4-[2-(3-bromo-4-{(5Sa)-4-[(1R)-1-carboxy-2-(2-{[2-(2-methoxyphenyl)pyrimidin-4-yl]methoxy}phenyl)ethoxy]-6-(4-fluorophenyl)thieno[2,3-d]pyrimidin-5-yl}-2-chlorophenoxy)ethyl]-1-methylpiperazin-1-ium trifluoroacetate] | 1.95 nM | 
11 | 9.48e-10 M | CCOC(=O)OC[N+]1(C)CCN(CCOc2ccc(-c3c(-c4ccc(F)cc4)sc4ncnc(OC(Cc5ccccc5OCc5ccnc(-c6ccccc6OC)n5)C(=O)O)c34)c(Br)c2Cl)CC1 [Example 26, 4-[2-(3-bromo-4-{(5Sa)-4-[(1R)-1-carboxy-2-(2-{[2-(2-methoxyphenyl)pyrimidin-4-yl]methoxy}phenyl)ethoxy]-6-(4-fluorophenyl)thieno[2,3-d]pyrimidin-5-yl}-2-chlorophenoxy)ethyl]-1-{[(ethoxycarbonyl)oxy]methyl}-1-methylpiperazin-1-ium trifluoroacetate] | 2.29 nM | 
12 | 1.17e-09 M | CCN(CC)C(=O)OC[N+]1(C)CCN(CCOc2ccc(-c3c(-c4ccc(F)cc4)sc4ncnc(OC(Cc5ccccc5OCc5ccnc(-c6ccccc6OC)n5)C(=O)O)c34)c(Br)c2Cl)CC1 [Example 27, 1-[2-(3-bromo-4-{(5Sa)-4-[(1R)-1-carboxy-2-(2-{[2-(2-methoxyphenyl)pyrimidin-4-yl]methoxy}phenyl)ethoxy]-6-(4-fluorophenyl)thieno[2,3-d]pyrimidin-5-yl}-2-chlorophenoxy)ethyl]-1-{[(diethylcarbamoyl)oxy]methyl}-1-methylpiperazin-1-ium trifluoroacetate] | 1900 nM | 
13 | 1.36e-09 M | CCN(CC)C(=O)OC(C)[N+]1(C)CCN(CCOc2ccc(-c3c(-c4ccc(F)cc4)sc4ncnc(OC(Cc5ccccc5OCc5ccnc(-c6ccccc6OC)n5)C(=O)O)c34)c(Br)c2Cl)CC1 [Example 29, 4-[2-(3-bromo-4-{(5Sa)-4-[(1R)-1-carboxy-2-(2-{[2-(2-methoxyphenyl)pyrimidin-4-yl]methoxy}phenyl)ethoxy]-6-(4-fluorophenyl)thieno[2,3-d]pyrimidin-5-yl}-2-chlorophenoxy)ethyl]-1-{1-[(diethylcarbamoyl)oxy]ethyl}-1-methylpiperazin-1-ium trifluoroacetate] | 136 nM | 
14 | 9.48e-10 M | COc1ccccc1-c1nccc(COc2ccccc2C[C@@H](Oc2ncnc3sc(-c4ccc(F)cc4)c(-c4ccc(OCCN5CC[N+](C)(Cc6oc(=O)oc6C)CC5)c(Cl)c4Br)c23)C(=O)O)n1 [Example 30, 4-[2-(3-bromo-4-{(5Sa)-4-[(1R)-1-carboxy-2-(2-{[2-(2-methoxyphenyl)pyrimidin-4-yl]methoxy}phenyl)ethoxy]-6-(4-fluorophenyl)thieno[2,3-d]pyrimidin-5-yl}-2-chlorophenoxy)ethyl]-1-methyl-1-[(5-methyl-2-oxo-1,3-dioxol-4-yl)methyl]piperazin-1-ium trifluoroacetate] | 2.81 nM | 

Source: patent publication US10457689B2, “Ammonium derivatives, a process for their preparation and pharmaceutical compositions containing them” (LES LABORATOIRES SERVIER, priority 2016, dated 2019)
